The target in data set [1] is T1, NR1a/NR2A recombinant receptors (Homo sapiens, UniProt Q05586+Q12879).
T1 construct: expressed in transfected cells; host or cells: Xenopus laevis oocytes, nuclear cDNA injection
The data set is described as follows: NMDA-induced currents in oocytes expressing NR1a/NR2A. It is filed as cell-based. Particulars: 100 μM NMDA, 1 μM glycine, oocytes; read-out: IC50, inhibition of NMDA-induced currents. The procedure:
(§1) Oocytes were obtained from Xenopus laevis frogs (Nasco or Xenopus I) kept in aquarium tanks at 19–21° C., on a 12 hr light/dark cycle. Mature females were anesthetized by immersion for approximately 30 min in a 0.12% 3-aminobenzoic acid ethyl ester solution, a small incision was made in the abdominal wall and a piece of ovary was removed and placed in Modified Barth's solution (MBS; in mM) containing 88 NaCl, 1 KCl, 10 HEPES, 0.82 MgSO4, 2.4 NaHCO3, 0.91 CaCl2, 0.33 Ca(NO3)2 (pH 7.5). To facilitate manual dissection of oocytes, a section of ovary was transferred from MBS to a hypertonic buffer containing 108 mM NaCl, 2 mM KCl, 2 mM EDTA, 10 mM HEPES, pH 7.5 and theca and epithelial layers of mature oocytes (stages V and VI) were removed with surgical forceps. The follicular layer was removed by a 10 min immersion in 0.5 mg/ml of collagenase in buffer containing 83 mM NaCl, 2 mM KCl, 1 mM MgCl2 and 5 mM HEPES.
(§2) Human NR1a, NR2A and NR2B cDNAs in pCDNA-1Amp were transformed and amplified in XL-1 Blue cells and purified with the MaxPrep Qiagen kit. Oocytes were injected with cDNA into the nucleus in the following concentrations: NR1a/2A cDNAs 0.75 ng/30 nl 1:1 ratio, NR1a/2B cDNAs 3.0 ng/30 nl: 1:1 ratio. Injections were made with micropipettes (10 μm tip diameter) connected to a Drummond micropipettor attached to a micromanipulator. After injection, oocytes were individually placed in wells of 96-well microtiter plates containing incubation medium (MBS supplemented with 10 mg/l streptomycin, 10,000 U/l penicillin G, 50 mg/l gentamicin, 2 mM sodium pyruvate, 0.5 mM theophylline) that had been sterilized by passage through a […]. Oocytes were incubated at 19° C. for 2 to 4 days after injection.
(§3) Oocytes were placed in a rectangular chamber (approximately […]) and perfused (2 ml/min) with frog Ringer (in mM) containing 115 NaCl, 2.5 KCl, 1.8 CaCl2, 10 HEPES (pH 7.2). […] Control responses were always measured before and after addition of the DCUKA. […] Data are expressed as the % inhibition of the agonist response obtained in the absence of the drug.

Data set [2] has as its target T2, NR1a/NR2A recombinant receptors (Homo sapiens, UniProt Q05586).
T2 construct: expressed in transfected cells; host or cells: Xenopus laevis oocytes, nuclear cDNA injection
The description is as above. It is filed as cell-based. As to conditions: 100 μM NMDA, 50 μM DCUKA, increasing glycine up to 100 μM. The procedure:
as §1, §2, §3

Data set [3] has as its target T3, NR1a/NR2B recombinant receptors (Homo sapiens, UniProt Q05586).
T3 construct: expressed in transfected cells; host or cells: Xenopus laevis oocytes, nuclear cDNA injection
Briefly: NMDA-induced currents in oocytes expressing NR1a/NR2B. It is filed as cell-based. As to conditions: 100 μM NMDA, 50 μM DCUKA, increasing glycine. The method, then: as §1, §2, §3

Data set [4] has as its target T4, NR1a/NR2B recombinant receptors (Homo sapiens, UniProt Q05586+Q13224).
T4 construct: expressed in transfected cells; host or cells: Xenopus laevis oocytes, nuclear cDNA injection
The data set is described as above. It is filed as cell-based. Particulars: 100 μM NMDA, 0.3 μM glycine, oocytes; read-out: IC50, inhibition of NMDA-induced currents. The method, then:
as §1, §2, §3

For data set [5], the target named is T5, polyamine binding site on the NMDA receptor (Rattus norvegicus, UniProt P35439+Q00960).
T5 construct: from tissue; host or cells: rat cortical membranes
T5 sequence (Q00960 27-1482, other chains not shown): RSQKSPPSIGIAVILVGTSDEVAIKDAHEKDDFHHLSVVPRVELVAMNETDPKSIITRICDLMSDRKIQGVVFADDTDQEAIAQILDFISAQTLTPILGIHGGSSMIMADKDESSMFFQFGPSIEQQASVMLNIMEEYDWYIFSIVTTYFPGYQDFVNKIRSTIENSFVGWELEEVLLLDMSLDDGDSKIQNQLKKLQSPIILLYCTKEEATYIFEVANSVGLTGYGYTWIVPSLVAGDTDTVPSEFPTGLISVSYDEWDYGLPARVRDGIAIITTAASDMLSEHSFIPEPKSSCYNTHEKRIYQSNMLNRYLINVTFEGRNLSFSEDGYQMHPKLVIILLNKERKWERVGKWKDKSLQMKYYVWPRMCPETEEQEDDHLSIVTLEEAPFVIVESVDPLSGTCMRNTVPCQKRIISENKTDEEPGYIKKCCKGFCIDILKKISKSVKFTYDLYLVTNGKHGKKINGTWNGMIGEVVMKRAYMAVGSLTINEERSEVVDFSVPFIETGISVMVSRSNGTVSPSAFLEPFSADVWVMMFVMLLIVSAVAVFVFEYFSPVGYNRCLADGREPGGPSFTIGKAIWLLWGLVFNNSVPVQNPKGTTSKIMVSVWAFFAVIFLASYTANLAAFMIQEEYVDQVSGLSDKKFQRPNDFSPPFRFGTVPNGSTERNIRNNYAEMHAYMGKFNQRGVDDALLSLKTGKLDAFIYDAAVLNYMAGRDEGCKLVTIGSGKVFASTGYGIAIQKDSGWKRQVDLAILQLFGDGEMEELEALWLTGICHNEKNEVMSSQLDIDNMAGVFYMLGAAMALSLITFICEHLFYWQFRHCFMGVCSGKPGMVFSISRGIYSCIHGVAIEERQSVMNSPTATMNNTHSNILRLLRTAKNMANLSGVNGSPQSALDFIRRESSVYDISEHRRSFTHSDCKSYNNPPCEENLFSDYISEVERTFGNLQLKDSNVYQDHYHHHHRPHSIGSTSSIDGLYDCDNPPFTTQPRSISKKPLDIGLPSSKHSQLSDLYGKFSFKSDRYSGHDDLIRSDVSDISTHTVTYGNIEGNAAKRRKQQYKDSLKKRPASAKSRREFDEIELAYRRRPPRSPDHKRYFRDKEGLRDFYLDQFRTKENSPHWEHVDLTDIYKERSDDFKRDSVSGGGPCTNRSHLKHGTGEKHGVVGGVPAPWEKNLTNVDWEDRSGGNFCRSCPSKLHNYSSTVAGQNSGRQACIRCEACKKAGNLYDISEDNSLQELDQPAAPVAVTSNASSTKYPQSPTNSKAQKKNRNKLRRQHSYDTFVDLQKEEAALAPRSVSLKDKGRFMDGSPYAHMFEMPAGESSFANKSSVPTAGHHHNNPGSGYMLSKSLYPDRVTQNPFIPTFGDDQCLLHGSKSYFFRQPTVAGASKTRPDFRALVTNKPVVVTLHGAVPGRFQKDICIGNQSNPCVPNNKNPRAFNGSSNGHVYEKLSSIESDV
Briefly: [3H]ifenprodil binding, rat cortical membranes. As to conditions: 5–200 μM DCUKA tested.

The target of data set [6] is benzodiazepine binding site on the GABAA receptor. Briefly: [3H]flunitrazepam binding, rat cortical membranes. Particulars: 5–200 μM DCUKA tested. The procedure: SITES IN CEREBRUM OF F-344 RATS: EFFECTS OF EXERCISE,” Neurobiol. […] Non-specific binding was defined by 10 μM diazepam.
Data set [7] relates to Swiss-Webster mice. Briefly: Ethanol-induced loss of righting reflex. It is filed as in vivo. Particulars: i.p. 30 minutes before ethanol; DCUK-OMe 100 mg/kg, DZP 1 mg/kg. The procedure:
Swiss-Webster mice were pretreated (i.p.) with 100 mg/kg DCUK-OMe or 1 mg/kg diazepam (DZP) (in 5% Tween-80, 20% Intralipid) 30 minutes before receiving an i.p. administration of ethanol (either 2.3 or 3.2 g/kg, 20% v/v in saline.). The duration of the ethanol-induced loss of righting reflex (defined as the inability of the mouse to right itself when placed on its back in a trough) was measured. […] Since withdrawal signs are many times evident in individuals whose blood ethanol levels are dropping but are far from zero, the DCUK compounds would have an advantage over DZP in that the CNS depressant effects of ethanol would not be accentuated by DCUK compounds if the DCUK compounds are used in an alcohol-intoxicated individual.

Regarding `O=C(O)c1cc(NC(=O)N(c2ccccc2)c2ccccc2)c2c(Cl)cc(Cl)cc2n1` [DCUKA, (N,N-diphenyl)-4-ureido-5,7-dichloro-2-carboxy-quinoline], the IC50 – broadly, the concentration that gives 50% inhibition – was 12.8 µM in data set [1], 20.7 µM in data set [4], over 200 µM in data set [5] and over 200 µM in data set [6]. The “reversal by glycine of inhibition of NMDA-induced currents” value in data set [2] is reported as “could not be overcome by glycine, even at a 100 μM concentration”; in data set [3], “completely reversed at 10 μM glycine”.

For `COC(=O)c1cc(NC(=O)N(c2ccccc2)c2ccccc2)c2c(Cl)cc(Cl)cc2n1` [DCUK-OMe, (N,N-diphenyl)-4-ureido-5,7-dichloro-2-carboxy-quinoline methyl ester], the “duration of ethanol-induced loss of righting reflex (LORR)” value in data set [7] is recorded as “no significant enhancement”.

For the origin of these results see patent publication US6962930B1, “Compounds, compositions and method suitable for amelioration of withdrawal syndromes and withdrawal-induced brain damage” (Lohocla Research Corporation, priority 1997, dated 2005).
